Reference: US7211572B2 (Japan Tobacco Inc., priority 2003, dated 2007)
Counter-ions that a name gives are not always drawn.

The molecules below were run against T1, HIV integrase (Human immunodeficiency virus type 1 group M subtype B, UniProt P12497, F1332H) (assay: Determination of enzyme (HIV integrase) inhibitory activity). Settings: recombinant HIV integrase (F185H), strand transfer ELISA, absorbance at 450 nm.
T1 construct: HIV integrase full length gene; made in house; host or cells: Escherichia coli BL21(DE3), plasmid pET21a-INH
Format: biochemical
Text: The following explains evaluation methods of the HIV integrase inhibitory activity of the compound of the present invention.
(i) Construction of Recombinant Integrase Gene Expression System
The 185th phenylalanine of HIV integrase full length gene (J. Virol., 67, 425–437 (1993)) was substituted by histidine and inserted into the restriction enzyme NdeI and XhoI sites of plasmid pET21a(+) (Novagen), whereby an integrase expression vector pET21a-INH was constructed.
(ii) Production and Purification of Integrase Protein
Escherichia coli recombinant BL21(DE3) transformed with plasmid pET21a-INH obtained in (i) was shake cultured at 37° C. in a liquid medium containing ampicillin. When the culture reached the logarithmic growth phase, isopropyl-β-D-thiogalactopyranoside was added to promote expression of integrase gene. The culture was continued for 3 hr to promote accumulation of the integrase protein. The recombinant E. coli was collected in pellets by centrifugal separation and preserved at −80° C.
The E. coli was suspended in Lysis buffer (20 mM HEPES (pH 7.5), 5 mM DTT, 10 mM CHAPS, 10% glycerol) containing 1M sodium chloride and subjected to repeat pressurization and depressurization for rupture, and centrifugal separation at 4° C., 40,000×g, 60 min to recover a water-soluble fraction (supernatant). This was diluted 10-fold with Lysis buffer free of sodium chloride, mixed with SP-Sepharose (Pharmacia Corporation) and stirred at 4° C. for 30 min to allow adsorption of integrase protein to the resin. The resin was washed with Lysis buffer containing 100 mM sodium chloride and the integrase protein was eluted with Lysis buffer containing 1M sodium chloride.
The eluted integrase protein solution was applied to a Superdex 75 (Pharmacia Corporation) column for gel filtration. The protein was eluted with Lysis buffer containing 1M sodium chloride.
The obtained fractions of the integrase protein were collected and preserved at −80° C.
(iii) Preparation of DNA Solution
The following DNA synthesized by Greiner was dissolved in TE buffer (10 mM Tris-hydrochloric acid (pH 8.0), 1 mM EDTA) and mixed with donor DNA, target DNA, and each complementary strand (+ and − strands) to 1 μM. The mixture was heated at 95° C. for 5 min, 80° C. for 10 min, 70° C. for 10 min, 60° C. for 10 min, 50° C. for 10 min and 40° C. for 10 min and preserved at 25° C. to give a double stranded DNA, which was used for the test.
Donor DNA (− strand having biotin attached to the 5′ terminal)
(iv) Determination of Enzyme (HIV Integrase) Inhibitory Activity
The donor DNA was diluted with TE buffer to 10 nM, of which 50 μl was added to each well of streptavidin-coated microtiter plate (Roche) and allowed to adsorb at 37° C. for 60 min. The DNA was washed with phosphate buffer (Dulbecco PBS, Sanko Junyaku Co., Ltd.) containing 0.1% Tween 20 and phosphate buffer. Then, a reaction mixture (70 μl) having the following composition, a test substance (10 μl) diluted with the reaction mixture and 100 μg/ml integrase protein (10 μl) were added to each well and reacted at 37° C. for 60 min.
Composition of the reaction mixture: 30 mM MOPS (3-morpholinopropanesulfonic acid), 5 mM magnesium chloride, 3 mM DTT (dithiothreitol), 0.1 mg/ml BSA (bovine serum albumin), 5% glycerol, 10% DMSO (dimethyl sulfoxide), 0.01% Tween 20.
Then, 50 nM target DNA (10 μl) was added, reacted at 37° C. for 10 min and washed with phosphate buffer containing 0.1% Tween 20 to stop the reaction.
Then, 100 mU/ml peroxidase labeled anti-digoxigenin antibody solution (Roche, 100 μl) was added, and the mixture was reacted at 30° C. for 60 min, followed by washing with phosphate buffer containing 0.1% Tween 20.
A peroxidase color solution (Bio Rad, 100 μl) was added and allowed to react at room temperature for 4 min. The color reaction was stopped by adding 1N sulfuric acid (100 μl). The absorbance at 450 nm was measured. […]

Structure (SMILES) | IC50 [nM]
O=C1c2c(O)c(=O)ccn2CCN1Cc1ccc(Cl)c(Cl)c1 [Example 1, 2-(3,4-dichlorobenzyl)-9-hydroxy-3,4-dihydro-2H-pyrido[1,2-a]pyrazine-1,8-dione hydrochloride] | < 10
CC1Cn2ccc(=O)c(O)c2C(=O)N1Cc1ccc(Cl)c(Cl)c1 (centres unmarked) [Example 3, 2-(3,4-dichlorobenzyl)-9-hydroxy-3-methyl-3,4-dihydro-2H-pyrido[1,2-a]pyrazine-1,8-dione] | 10 to 100
CC1(C)CN(Cc2ccc(Cl)c(Cl)c2)C(=O)c2c(O)c(=O)ccn21 [Example 4, 2-(3,4-dichlorobenzyl)-9-hydroxy-4,4-dimethyl-3,4-dihydro-2H-pyrido[1,2-a]pyrazine-1,8-dione] | 10 to 100
O=C1c2c(O)c(=O)cc(CO)n2CCN1Cc1ccc(Cl)c(Cl)c1 [Example 5, 2-(3,4-dichlorobenzyl)-9-hydroxy-6-hydroxymethyl-3,4-dihydro-2H-pyrido[1,2-a]pyrazine-1,8-dione] | 10 to 100
O=C(O)c1cc(=O)c(O)c2n1CCN(Cc1ccc(Cl)c(Cl)c1)C2=O [Example 6, 2-(3,4-dichlorobenzyl)-9-hydroxy-1,8-dioxo-1,3,4,8-tetrahydro-2H-pyrido[1,2-a]pyrazine-6-carboxylic acid] | 10 to 100
CC(C)(C)C(=O)c1cc(=O)c(O)c2n1CCN(Cc1ccc(Cl)c(Cl)c1)C2=O [Example 7, 2-(3,4-dichlorobenzyl)-6-(2,2-dimethylpropionyl)-9-hydroxy-3,4-dihydro-2H-pyrido[1,2-a]pyrazine-1,8-dione] | < 10
O=c1ccn2ccn(Cc3ccc(Cl)c(Cl)c3)c(=O)c2c1O [Example 8, 2-(3,4-dichlorobenzyl)-9-hydroxy-2H-pyrido[1,2-a]pyrazine-1,8-dione] | < 10
Cc1cn2ccc(=O)c(O)c2c(=O)n1Cc1ccc(Cl)c(Cl)c1 [Example 9, 2-(3,4-dichlorobenzyl)-9-hydroxy-3-methyl-2H-pyrido[1,2-a]pyrazine-1,8-dione] | 10 to 100
CC(C)c1cn(Cc2cccc(Cl)c2)c(=O)c2c(O)c(=O)ccn12 [Example 10, 2-(3-chlorobenzyl)-9-hydroxy-4-isopropyl-2H-pyrido[1,2-a]pyrazine-1,8-dione hydrochloride] | 10 to 100
O=c1ccn2ccn(CCCc3c(Cl)cccc3Cl)c(=O)c2c1O [Example 11, 2-[3-(2,6-dichlorophenyl)propyl]-9-hydroxy-2H-pyrido[1,2-a]pyrazine-1,8-dione] | < 10
O=c1ncn2ccn(Cc3ccc(Cl)c(Cl)c3)c(=O)c2c1O [Example 12, 2-(3,4-dichlorobenzyl)-9-hydroxy-2H-pyrazino[1,2-a]pyrimidine-1,8-dione hydrochloride] | 10 to 100
CC1CN(Cc2ccc(Cl)c(Cl)c2)C(=O)c2c(O)c(=O)ccn21 (centres unmarked) [Example 13, 2-(3,4-dichlorobenzyl)-9-hydroxy-4-methyl-3,4-dihydro-2H-pyrido[1,2-a]pyrazine-1,8-dione] | 10 to 100
O=C1c2c(O)c(=O)ccn2C(Cc2ccccc2)CN1Cc1ccc(Cl)c(Cl)c1 (centres unmarked) [Example 14, 4-benzyl-2-(3,4-dichlorobenzyl)-9-hydroxy-3,4-dihydro-2H-pyrido[1,2-a]pyrazine-1,8-dione] | 10 to 100
O=C1c2c(O)c(=O)ccn2C(c2ccccc2)CN1Cc1ccc(Cl)c(Cl)c1 (centres unmarked) [Example 15, 2-(3,4-dichlorobenzyl)-9-hydroxy-4-phenyl-3,4-dihydro-2H-pyrido[1,2-a]pyrazine-1,8-dione] | 10 to 100
CCCCC1CN(Cc2ccc(Cl)c(Cl)c2)C(=O)c2c(O)c(=O)ccn21 (centres unmarked) [Example 16, 4-butyl-2-(3,4-dichlorobenzyl)-9-hydroxy-3,4-dihydro-2H-pyrido[1,2-a]pyrazine-1,8-dione] | 10 to 100
CC(C)C1CN(Cc2ccc(Cl)c(Cl)c2)C(=O)c2c(O)c(=O)ccn21 (centres unmarked) [Example 17, 2-(3,4-dichlorobenzyl)-9-hydroxy-4-isopropyl-3,4-dihydro-2H-pyrido[1,2-a]pyrazine-1,8-dione] | 10 to 100
CC1(C)Cn2ccc(=O)c(O)c2C(=O)N1Cc1ccc(Cl)c(Cl)c1 [Example 18, 2-(3,4-dichlorobenzyl)-9-hydroxy-3,3-dimethyl-3,4-dihydro-2H-pyrido[1,2-a]pyrazine-1,8-dione] | 10 to 100
O=C1c2c(O)c(=O)ccn2C2(CCCC2)CN1Cc1ccc(Cl)c(Cl)c1 [Example 19, 2-(3,4-dichlorobenzyl)-9-hydroxy-3,4-dihydro-2H-pyrido[1,2-a]pyrazine-4-spiro-1′-cyclopentane-1,8-dione] | 10 to 100
O=C1c2c(O)c(=O)ccn2C2(CCCCC2)CN1Cc1ccc(Cl)c(Cl)c1 [Example 20, 2-(3,4-dichlorobenzyl)-9-hydroxy-3,4-dihydro-2H-pyrido[1,2-a]pyrazine-4-spiro-1′-cyclohexane-1,8-dione] | 10 to 100
COC(=O)C1CN(Cc2ccc(Cl)c(Cl)c2)C(=O)c2c(O)c(=O)ccn21 (centres unmarked) [Example 21, methyl 2-(3,4-dichlorobenzyl)-9-hydroxy-1,8-dioxo-1,3,4,8-tetrahydro-2H-pyrido[1,2-a]pyrazine-4-carboxylate] | 10 to 100
O=C(O)C1CN(Cc2ccc(Cl)c(Cl)c2)C(=O)c2c(O)c(=O)ccn21 (centres unmarked) [Example 22, 2-(3,4-dichlorobenzyl)-9-hydroxy-1,8-dioxo-1,3,4,8-tetrahydro-2H-pyrido[1,2-a]pyrazine-4-carboxylic acid] | 10 to 100
COCc1cc(=O)c(O)c2n1CCN(Cc1ccc(Cl)c(Cl)c1)C2=O [Example 23, 2-(3,4-dichlorobenzyl)-9-hydroxy-6-methoxymethyl-3,4-dihydro-2H-pyrido[1,2-a]pyrazine-1,8-dione] | 10 to 100
CN(C)C(=O)c1cc(=O)c(O)c2n1CCN(Cc1ccc(Cl)c(Cl)c1)C2=O [Example 24, N,N-dimethyl-2-(3,4-dichlorobenzyl)-9-hydroxy-1,8-dioxo-1,3,4,8-tetrahydro-2H-pyrido[1,2-a]pyrazine-6-carboxamide] | 10 to 100
O=C1c2c(O)c(=O)ccn2CC(Cc2ccccc2)N1Cc1ccc(Cl)c(Cl)c1 (centres unmarked) [Example 25, 3-benzyl-2-(3,4-dichlorobenzyl)-9-hydroxy-3,4-dihydro-2H-pyrido[1,2-a]pyrazine-1,8-dione] | 10 to 100
CCCCC1Cn2ccc(=O)c(O)c2C(=O)N1Cc1ccc(Cl)c(Cl)c1 (centres unmarked) [Example 26, 3-butyl-2-(3,4-dichlorobenzyl)-9-hydroxy-3,4-dihydro-2H-pyrido[1,2-a]pyrazine-1,8-dione] | 10 to 100
CN(C)C(=O)C1CN(Cc2ccc(Cl)c(Cl)c2)C(=O)c2c(O)c(=O)ccn21 (centres unmarked) [Example 27, N,N-dimethyl-2-(3,4-dichlorobenzyl)-9-hydroxy-1,8-dioxo-1,3,4,8-tetrahydro-2H-pyrido[1,2-a]pyrazine-4-carboxamide] | 100 to 1000
O=C1c2c(O)c(=O)ccn2C(CO)CN1Cc1ccc(Cl)c(Cl)c1 (centres unmarked) [Example 28, 2-(3,4-dichlorobenzyl)-9-hydroxy-4-hydroxymethyl-3,4-dihydro-2H-pyrido[1,2-a]pyrazine-1,8-dione] | 10 to 100
COCC1CN(Cc2ccc(Cl)c(Cl)c2)C(=O)c2c(O)c(=O)ccn21 (centres unmarked) [Example 29, 2-(3,4-dichlorobenzyl)-9-hydroxy-4-methoxymethyl-3,4-dihydro-2H-pyrido[1,2-a]pyrazine-1,8-dione] | 10 to 100
CSCc1cc(=O)c(O)c2n1CCN(Cc1ccc(Cl)c(Cl)c1)C2=O [Example 30, 2-(3,4-dichlorobenzyl)-9-hydroxy-6-methylsulfanylmethyl-3,4-dihydro-2H-pyrido[1,2-a]pyrazine-1,8-dione] | 10 to 100
